Measurements from PMC8333062, “Chemical tools for epichaperome-mediated interactome dysfunctions of the central nervous system” (Nature Communications, 2021).
Several values for one entry are separate records, joined by “and”; a condition that tells them apart may be missing. Equal entries are not always repeated.

How the values were obtained:
[1] = tested on: epichaperome +ve (MDA-MB-468) tumors; assay: Small-animal PET, xenografted tumors; assay type: in vivo, mouse; conditions: 48 h post-injection
Procedure: (§1) We opted for the use of xenografted MDA-MB-468 and ASPC1 tumors in mice (target-positive versus target-negative, respectively, with equal total HSP90 levels, Fig. 3b). Because PU-HZ151 rapidly distributes throughout the body (see Fig. 2a and further below), and taking in consideration the high concentration of chaperones in cells (>100 µM)[41], a bolus injection creates a rapid equilibrium mixture state. Subsequent to reaching an ‘equilibrium’ state throughout the body, PU-HZ151 then rapidly clears from plasma, which initiates a body-wide dilution state. Recording the differential concentration-time curves for PU-HZ151 in the two tumor types offers the relative dissociation rate constants, but most importantly, informs on probe’s epichaperome selectivity (Fig. 3a).
(§2) For subcutaneous xenografts, mice were anesthetized with 2% isoflurane (Baxter Healthcare) (2 l min^−1 medical air). […]
(§3) Orthotopic GBM xenografts in mice were established by injection of 5 × 10^5 cells in 2 μL PBS. […] PET data for each mouse was recorded using static scans of 15 min and acquired at the indicated times post injection. Quantification and %ID g^−1 values were calculated by manually drawing regions of interests in three different frames and determining the average values using ASI Pro VM™ MicroPET Analysis software (Siemens Medical Solutions, Knoxville, TX).

[2] = tested on: epichaperome -ve (ASPC1) tumors; assay: Small-animal PET, xenografted tumors; assay type: in vivo, mouse; conditions: 48 h post-injection
Procedure: as §1, §2, §3

[3] = PET biodistribution in human patients; assay type: in vivo; conditions: mean n=3
Text: To evaluate the brain permeability of PU-HZ151 into the human brain, we produced the [^124I]-labeled derivative and performed serial PET imaging studies of human patients (n = 3; NCT03371420), and derived time-activity (i.e. standard uptake values (SUV) versus time post-administration) curves for the brain and various other tissues (Fig. 2b). PET data obtained for [^124I]-labeled PU-H71 (NCT01269593 and ref. [39]) were used for comparison. […] The AUC values recorded for [^124I]-PU-HZ151 in the human brain post-single injection are at par with what was measured in the human muscle and lung, supportive of uptake of PU-HZ151 into the human brain (Fig. 2b). Magnetic resonance imaging (MRI), by offering structural and soft tissue resolution, confirmed the presence of PU-HZ151 in the brain tissue (Fig. 2d). […] The secondary outcome of the trial was to measure adverse events following administration of the probe. Safety of [^124I]-PU-HZ151 in human subjects was assessed by evaluation of the incidence, nature, and severity of adverse events and serious adverse events (Supplementary Note 2).
[^124I]-PU-HZ151 and [^124I]-PU-H71 were synthesized in-house by the institutional cyclotron core facility at high specific activity. Analyses of the epichaperome by positron emission tomography (PET-CT) were performed as previously reported. In brief, research PET-CT was performed using an integrated PET-CT scanner (Discovery DSTE, GE Healthcare). CT scans for attenuation correction and anatomic coregistration were performed before tracer injection. Patients received 5 mCi of [^124I]-PU-HZ151 or [^124I]-PU-H71 by peripheral vein over 2 min. PET data were reconstructed using a standard ordered subset expected maximization iterative algorithm. Emission data were corrected for scatter, attenuation, and decay. PET scans were performed 0.5, 3, and 24 h after tracer administration. Numbers in the scale bar indicate upper and lower standardized uptake value (SUV) thresholds that define pixel intensity on PET images. SUV is a pixel value, derived from PET measurements of in vivo radioactivity, quantified as the fraction of the radioactive dose injected found in a cubic centimeter of measured tissue multiplied (ie, normalized) by patient body weight (grams). Maximum Intensity Projection (MIP) 3D images were constructed from the voxels with maximum intensity that fell in the way of parallel rays traced from the viewpoint to the plane of projection. At each pixel the highest data value encountered along the corresponding viewing ray was determined. MRI scans were obtained as part of routine clinical care using hardware and standard data acquisition and processing methods. MRI was obtained using a 1.5T magnet (Signa HDxt, GE Healthcare, Milwaukee, WI). […] Gadopentetate dimeglumine (Magnevist, HealthCare Pharmaceuticals Inc.) was injected though a peripheral angiocatheter at a standard dose (0.2 mL kg^−1 body weight, 40 mL, 2 cc s^−1). For precise localization of tracer uptake to specific neuroanatomical structures, PET brain images were fused to MRI brain images using the Integrated Registration application of the AW Suite software package (GE Healthcare, Milwaukee, Wisconsin, USA).

[4] = tested on: epichaperomes in MDA-MB-468 cells; assay: Epichaperome modulation, Native PAGE; assay type: cell-based, human

## CC(C)(C)CNCCn1c(Sc2cc3c(cc2I)OCO3)nc2c(N)ncnc21 [Compound 85]
[1]
  tumor retention by PET: clear retention and visualization of MDA-MB-468 tumors even at 48 h post-injection
[2]
  tumor retention by PET: no signal was noted in ASPC1 tumors
[3]; 0.5 h
  SUV average, Brain: 1.12 SUV
  SUV average, Lung: 0.59 SUV
  SUV average, Muscle: 0.87 SUV
[3]; 3 h
  SUV average, Brain: 0.49 SUV
  SUV average, Lung: 0.34 SUV
  SUV average, Muscle: 0.37 SUV
[3]; 24 h
  SUV average, Brain: 0.04 SUV
  SUV average, Lung: 0.1 SUV
  SUV average, Muscle: 0.1 SUV
[4]; [PU-HZ151] 0.05 uM
  Epichaperome modulation (Native PAGE), R1-R3: 101.613 and 126.223 and 117.544
[4]; [PU-HZ151] 0.1 uM
  Epichaperome modulation (Native PAGE), R1-R3: 92.742 and 86.889 and 60.276
